# Measured values as given in US20230272010A1, “ANTIBACTERIAL SYNTHETIC-BIOINFORMATIC NATURAL PRODUCTS AND USES THEREOF” (The Rockefeller University, priority 2020, published 2023).
# Residues, ends and D or L forms follow the SMILES beside them.
# Key:
# HeLa cells = assay: in vitro; assay type: cell-based, human
# Experimental: (§1) HeLa cells were grown in Dulbecco's Modified Eagle Medium (DMEM) supplemented with penicillin (10 units/mL), streptomycin (10 units/mL), […] (2 mM), and heat-inactivated fetal bovine serum (10% v/v) at 37° C. in a 5% CO2 atmosphere. HeLa cells were seeded into 384-well plates (500 cells per well) and incubated in DMEM at 37° C. with 5% CO2 for 16 h to allow cells to adhere. The OD570 readings were used to calculate relative growth (%) based on the positive (2 μM Taxol™, 0%) and negative (DMSO, 100%) controls. The cytotoxicity assay was performed in quadruplicate (n=4) and analyzed according to protocol reported previously (Chu Jet al., 2019, J. Am. Chem. Soc., 141:15737-15741).
# M. tuberculosis H37Rv = settings: highest concentration tested 12.5 μg/mL
# E. coli DH5α = assay: MIC determination by broth microdilution; assay type: cell-based, Escherichia coli
# P. aeruginosa = assay: MIC determination by broth microdilution; assay type: cell-based, Pseudomonas aeruginosa
# A. baumannii = assay: MIC determination by broth microdilution; assay type: cell-based, Acinetobacter baumannii
# [1] = tested on: Bacillus subtilis, Escherichia coli, and the ESKAPE pathogens; assay: Antibacterial activity / MIC against screening panel of bacteria; assay type: cell-based; settings: panel of Gram-positive and Gram-negative bacteria, FIG. 4A
# Text: To identify antibacterial active syn-BNPs, each fraction, containing the mass of a target syn-BNP cyclic peptide against Bacillus subtilis, Escherichia coli, and the ESKAPE pathogens, was screened. ESKAPE pathogens represented the bacteria most commonly associated with antibiotic-resistant nosocomial infections: Enterococcus faecium, Staphylococcus aureus, Klebsiella pneumoniae, Acinetobacter baumannii, Pseudomonas aeruginosa, and Enterobacter cloacae (Boucher H W et al., 2009, Clin. Infect. Dis., 48:1-12).
# In the initial screen, semi-pure peptides were spotted on solid growth media seeded with each bacterium. […]
# Standard susceptibility assays were performed in the appropriate growth medium in 96-well microtiter plates to determine the MIC by the broth microdilution method in accordance to protocols recommended by Clinical and Laboratory Standards Institute (Weinstein MP, 2012, Methods for dilution antimicrobial susceptibility tests for bacteria that grow aerobically, 9th edition; Clinical and Laboratory Standards Institute, Wayne, Pa.). For polymyxin-supplemented assays, the MIC of polymyxin against a bacterium was first determined (lx MIC). […] The measured MICs were as follows: E. coli DH5α (0.0625 μg/mL), K. pneumoniae and P. aeruginosa (0.15 μg/mL), A. baumannii ([…]), and E. cloacae (2 μg/mL). […]
# in vitro = assay type: cell-based, human; settings: human
# Experimental: as §1
# S. aureus or B. subtilis = assay: Membrane lysis assay (SYTOX fluorescence); assay type: cell-based; settings: initial assays, FIG. 4C and 4D
# [2] = tested on: S. aureus farER deletion mutant
# [3] = tested on: S. aureus farER deletion mutant with constitutive overexpression of the farER effux system (pALCfarER)
# S. aureus SH1000 ΔclpP = settings: clpP deletion
compound,measurement,setting,value
"CCCCCCCCCCCCCC(=O)N[C@H]1CCCNC(=O)[C@H](CC(C)C)NC(=O)[C@H](CCCNC(=N)N)NC(=O)[C@H]([C@@H](C)CC)NC(=O)[C@@H](CCCNC(=N)N)NC1=O [SyCPA 63, thurinsyn] (HELM PEPTIDE1{[CCCCCCCCCCCCCC(=O)[*:2]].[Orn].[dR].I.R.L}$PEPTIDE1,PEPTIDE1,2:R3-6:R2$$$V2.0)",Cytotoxicity (in words),HeLa cells,minimal HeLa cell cytotoxicity
same,MIC,K. pneumoniae,8 µg/mL
same,MIC,M. tuberculosis H37Rv,6 µg/mL
polymyxin,MIC of polymyxin,E. coli DH5α,0.0625 µg/mL
same,MIC of polymyxin,P. aeruginosa,0.15 µg/mL
same,MIC of polymyxin,A. baumannii,0.3 μ/mL
same,MIC of polymyxin,K. pneumoniae,0.15 µg/mL
"CCCCCCCCCCCCCC(=O)N[C@@H]1CNC(=O)[C@@H]2CCCN2C(=O)[C@H](Cc2ccccc2)NC(=O)[C@@H](C(C)C)NC(=O)[C@H](C)NC(=O)[C@@H](CCC(N)=O)NC(=O)[C@H]2CCCN2C1=O [SyCPA 2] (HELM PEPTIDE1{[CCCCCCCCCCCCCC(=O)[*:2]].[O=C([C@@H](CN[*:3])N[*:1])[*:2]].[dP].[dQ].A.[dV].F.P}$PEPTIDE1,PEPTIDE1,2:R3-8:R2$$$V2.0)",Spectrum of activity,[1],broader Gram-positive activity
same,IC50,in vitro,16 µg/mL
same,SYTOX or DiSC3(5) fluorescence,S. aureus or B. subtilis,slight increase in either SYTOX or DiSC3(5) fluorescence
"CCCCCCCCCCCC1CC(=O)N[C@H](Cc2ccccc2)C(=O)N[C@H](CCCN)C(=O)N[C@@H](C(C)C)C(=O)N[C@@H]([C@@H](C)CC)C(=O)N[C@@H](Cc2ccccc2)C(=O)N[C@@H](C)C(=O)N[C@@H](Cc2ccccc2)C(=O)N1 (stereo partly shown) [SyCPA 144, mucilasyn] (HELM PEPTIDE1{A.F.[CCCCCCCCCCCC(CC(=O)[*:2])N[*:1]].[dF].[NCCC[C@@H](N[*:1])C(=O)[*:2]].V.I.F}$PEPTIDE1,PEPTIDE1,1:R1-8:R2$$$V2.0)",Cytotoxicity (in words),HeLa cells,lack of toxicity to human cells in vitro
"CCCCCCCCCCCC1CC(=O)N[C@H](CC(C)C)C(=O)N[C@H](CN)C(=O)N[C@@H](C(C)C)C(=O)N[C@@H](CO)C(=O)N[C@@H]([C@@H](C)CC)C(=O)N1 (stereo partly drawn) [SyCPA 116, collimosyn] (HELM PEPTIDE1{I.[CCCCCCCCCCCC(CC(=O)[*:2])N[*:1]].[dL].[NC[C@@H](N[*:1])C(=O)[*:2]].V.S}$PEPTIDE1,PEPTIDE1,1:R1-6:R2$$$V2.0)",IC50,in vitro,11 µg/mL
same,Cytotoxicity (in words),HeLa cells,showed human cell line toxicity
same,MIC,[2],8 µg/mL
same,MIC,[3],> 64 µg/mL
same,Resistance (MIC),S. aureus SH1000 ΔclpP,> 128 µg/mL
